Assay results: US20220396597A1 (priority 2019, published 2022)

Biological target: GluN2B-containing NMDARs (Rattus norvegicus, UniProt P35439+Q00960)
Assay: NMDA current in N2a cells transfected with GluN1a and GluN2B
Conditions: recombinant subunits in N2a cells

Sequence of GluN2B-containing NMDARs (Q00960 27-1482, other chains not shown): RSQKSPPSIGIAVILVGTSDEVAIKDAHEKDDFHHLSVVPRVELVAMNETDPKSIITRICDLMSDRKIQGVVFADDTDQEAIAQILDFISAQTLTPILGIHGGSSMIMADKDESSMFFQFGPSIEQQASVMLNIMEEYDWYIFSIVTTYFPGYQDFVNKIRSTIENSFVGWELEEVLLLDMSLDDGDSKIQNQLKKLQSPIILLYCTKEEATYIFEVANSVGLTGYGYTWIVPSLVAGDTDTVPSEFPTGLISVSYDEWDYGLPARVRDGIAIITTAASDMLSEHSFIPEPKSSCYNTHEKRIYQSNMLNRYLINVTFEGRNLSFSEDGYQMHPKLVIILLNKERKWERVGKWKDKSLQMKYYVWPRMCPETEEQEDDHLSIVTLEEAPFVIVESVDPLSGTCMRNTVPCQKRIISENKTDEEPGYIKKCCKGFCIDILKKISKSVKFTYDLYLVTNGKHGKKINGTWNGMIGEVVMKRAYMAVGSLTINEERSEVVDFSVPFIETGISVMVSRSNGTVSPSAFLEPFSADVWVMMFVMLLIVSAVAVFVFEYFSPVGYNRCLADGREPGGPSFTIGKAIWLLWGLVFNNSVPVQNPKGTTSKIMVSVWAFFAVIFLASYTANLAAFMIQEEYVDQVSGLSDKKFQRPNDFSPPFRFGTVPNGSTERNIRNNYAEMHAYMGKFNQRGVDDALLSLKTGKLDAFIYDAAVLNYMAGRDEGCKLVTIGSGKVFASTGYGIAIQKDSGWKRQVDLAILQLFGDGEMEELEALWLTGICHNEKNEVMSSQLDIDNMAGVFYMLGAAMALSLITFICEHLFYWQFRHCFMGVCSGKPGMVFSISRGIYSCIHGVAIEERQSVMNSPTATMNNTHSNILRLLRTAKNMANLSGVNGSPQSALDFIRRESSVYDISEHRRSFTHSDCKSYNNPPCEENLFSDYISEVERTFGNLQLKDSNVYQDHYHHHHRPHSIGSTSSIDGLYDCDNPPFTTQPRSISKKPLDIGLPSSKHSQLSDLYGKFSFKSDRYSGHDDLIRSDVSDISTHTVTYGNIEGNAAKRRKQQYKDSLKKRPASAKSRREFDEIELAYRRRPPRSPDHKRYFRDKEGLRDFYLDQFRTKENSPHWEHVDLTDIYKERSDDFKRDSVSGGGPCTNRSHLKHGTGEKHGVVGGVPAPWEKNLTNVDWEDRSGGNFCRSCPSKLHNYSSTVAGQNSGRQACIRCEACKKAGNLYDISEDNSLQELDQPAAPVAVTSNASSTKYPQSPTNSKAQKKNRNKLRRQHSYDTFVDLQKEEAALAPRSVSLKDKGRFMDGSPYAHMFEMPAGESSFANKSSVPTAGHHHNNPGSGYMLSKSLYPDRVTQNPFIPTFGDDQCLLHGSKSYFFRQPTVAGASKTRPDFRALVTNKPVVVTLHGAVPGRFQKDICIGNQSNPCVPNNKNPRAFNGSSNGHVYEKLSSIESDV

C[C@H](CCCOS(=O)(=O)O)[C@H]1CC[C@H]2[C@@H]3CC[C@H]4C[C@@H](O)CC[C@]4(C)[C@H]3CC[C@]12C [MQ-221]
Subunit selectivity GluN2A vs GluN2B: favoring GluN2B
